Results on 35 compounds are retold here after ChEMBL document CHEMBL5046226, “Identification of (6S)-cyclopropyl-6,7-dihydropyrazolo[1,5-a]pyrazine-5(4H)-carboxamines as new HBV capsid assembly modulators” (Eur J Med Chem, 2022).

For one data set, the system named is Hepatitis B virus. The data set can be described thus: Antiviral activity against Hepatitis B virus infected in human HepG2.2.15 cells. Format: functional, organism-based.
A short description of data set [1]: Cytotoxicity against human HepG2.2.15 cells assessed as reduction in cell viability by CellTiter-Glo reagent based assay. The data set is classed as toxicity, HepG2 2.2.15.
Data set [2] can be described thus: Tmax in ICR mouse at 50 mg/kg, po. The data set is classed as ADME, organism-based. The conditions noted are these: in vivo.
Data set [3] in a line: Cmax in ICR mouse at 50 mg/kg, po. Format: ADME, organism-based. The conditions noted are these: in vivo. On the set-up: route oral, dose 50 mg/kg.
A short description of data set [4]: Half life in ICR mouse at 50 mg/kg, po. The data set is classed as ADME, organism-based. The conditions noted are these: in vivo.
A short description of data set [5]: AUC (0 to infinity) in ICR mouse at 50 mg/kg, po. Format: ADME, organism-based. Details: route oral, time infinity, dose 50 mg/kg. Particulars: in vivo.

Turning to `O=C1CC(Oc2ncc(F)cn2)CN1c1cnn2c1CN(C(=O)Nc1cc(F)c(F)c(F)c1)C(C1CC1)C2` (centres undefined), the response in the data set on Hepatitis B virus was half-maximal at 9 nM (EC50). In data set [1], the CC50 (usually the concentration that lowers cell viability or growth by half) was found to be 96200 nM.
Consider `O=C1CC(c2ncco2)CN1c1cnn2c1CN(C(=O)Nc1cc(F)c(F)c(F)c1)C(C1CC1)C2` (centres undefined), for which the EC50 (commonly the concentration giving half of the maximal effect) in the data set with Hepatitis B virus came to 9 nM. In data set [2], the Tmax (usually the time from dosing to the highest level) came out at 15 min. The concentration in data set [3] peaked (Cmax) at 8740 ng/mL. For the same compound, the half-life (usually the time needed for the level to fall by half in the phase considered) in data set [4] is 222 min. Also, the AUC(0-inf) (as a rule, the area under the concentration-time curve extrapolated to infinity) in data set [5] came out at 12200 ng·h/mL. Also, in data set [1], the CC50 was greater than 200000 nM.
In the case of `O=C1CC(c2ccccn2)CN1c1cnn2c1CN(C(=O)Nc1cc(F)c(F)c(F)c1)C(C1CC1)C2` (centres undefined), in the data set on Hepatitis B virus, the response was half-maximal at 12 nM (EC50). Besides, the CC50 in data set [1] came out at 96200 nM.
With `O=C(Nc1cc(F)c(F)c(F)c1)N1Cc2c(-c3ccc(F)cc3F)cnn2CC1C1CC1` (centres undefined), a half-maximal response in the data set on Hepatitis B virus (EC50) required 23 nM. The CC50 in data set [1] was determined as 32000 nM.
`O=C1CC(c2ncc(F)cn2)CN1c1cnn2c1CN(C(=O)Nc1cc(F)c(F)c(F)c1)C(C1CC1)C2` (centres undefined): the EC50 with Hepatitis B virus was 20 nM. In data set [1], the CC50 was determined as 115000 nM.
In the case of `O=C1CC(c2ccccc2)CN1c1cnn2c1CN(C(=O)Nc1cc(F)c(F)c(F)c1)C(C1CC1)C2` (centres undefined), the response in the data set with Hepatitis B virus was half-maximal at 6 nM (EC50). Also, the CC50 in data set [1] came to 12800 nM.
For `O=C1CC(c2ccc(F)cc2)CN1c1cnn2c1CN(C(=O)Nc1cc(F)c(F)c(F)c1)C(C1CC1)C2` (centres undefined), the EC50 in the data set with Hepatitis B virus came out at 23 nM. Also, in data set [1], the CC50 stood at 32000 nM.
Compound `O=C1NC(c2ccccc2)CN1c1cnn2c1CN(C(=O)Nc1cc(F)c(F)c(F)c1)C(C1CC1)C2` (centres undefined) yielded a 50% effective concentration (EC50) in the data set on Hepatitis B virus of 3 nM. In addition, the CC50 in data set [1] worked out at 38500 nM.
In the case of `O=C(Nc1cc(F)c(F)c(F)c1)N1CCCn2ncc(N3CC(c4ccccc4)CC3=O)c2C1` (centres undefined), the EC50 with Hepatitis B virus was greater than 2000 nM. In data set [1], the half-maximal cytotoxic concentration (CC50) was greater than 2000 nM.
As to `C[C@H]1Cn2ncc(N3CC(c4ccccc4)CC3=O)c2CN1S(=O)(=O)Nc1cc(F)c(F)c(F)c1` (some centres undefined), in the data set on Hepatitis B virus, the EC50 is greater than 2000 nM. The CC50 in data set [1] was greater than 2000 nM.
`Cc1cnc(C2CC(=O)N(c3cnn4c3CN(C(=O)Nc3cc(F)c(F)c(F)c3)C(C3CC3)C4)C2)s1` (centres undefined) gave an EC50 with Hepatitis B virus of 18 nM. Also, the CC50 in data set [1] was 96200 nM.
As to `CC1CN(C(=O)Nc2cc(F)c(F)c(F)c2)Cc2c(N3CC(C#N)CC3=O)cnn21` (centres undefined), the EC50 in the data set on Hepatitis B virus was found to be 62 nM. The CC50 in data set [1] came to 115000 nM.
In the data set with Hepatitis B virus, `O=C1CC(c2ccccc2)CN1c1cnn2c1CN(C(=O)Nc1cc(F)c(F)c(F)c1)C(Cc1ccccc1)C2` (centres undefined) yielded an EC50 greater than 2000 nM. For the same compound, the CC50 in data set [1] was greater than 2000 nM.
The compound `O=C1CC(Oc2ncccn2)CN1c1cnn2c1CN(C(=O)Nc1cc(F)c(F)c(F)c1)C(C1CC1)C2` (centres undefined) yielded an EC50 in the data set on Hepatitis B virus of 16 nM. In data set [2], the Tmax is 15 min. Also, the Cmax (in general, the peak of the concentration-time curve) in data set [3] was 5270 ng/mL. This compound gave a half-life in data set [4] of 57 min. The compound further showed an AUC(0-inf) in data set [5] of 4020 ng·h/mL. Also, the half-maximal cytotoxic concentration (CC50) in data set [1] was greater than 200000 nM.
As for `Cc1nc(C2CC(=O)N(c3cnn4c3CN(C(=O)Nc3cc(F)c(F)c(F)c3)C(C3CC3)C4)C2)no1` (centres undefined), the EC50 in the data set on Hepatitis B virus stood at 16 nM. Also, in data set [2], the Tmax was determined as 19.8 min. The compound also came in with a Cmax in data set [3] of 3860 ng/mL. Moreover, the half-life in data set [4] is 202 min. This compound displayed an AUC(0-inf) in data set [5] of 3860 ng·h/mL. The CC50 in data set [1] is greater than 200000 nM.
Turning to `C[C@H]1Cn2ncc(N3CC(c4ccccc4)CC3=O)c2CN1C(=O)NCc1cc(F)c(F)c(F)c1` (some centres undefined), the EC50 in the data set with Hepatitis B virus is greater than 2000 nM. The CC50 in data set [1] was greater than 2000 nM.
`O=C1OC(c2ccc(F)cc2)CN1c1cnn2c1CN(C(=O)Nc1cc(F)c(F)c(F)c1)C(C1CC1)C2` (centres undefined) gave an EC50 in the data set on Hepatitis B virus of 11 nM. In data set [1], the half-maximal cytotoxic concentration (CC50) stood at 3560 nM.
The compound `O=C1CC(c2ccccc2)CN1c1cnn2c1CN(C(=O)Nc1cc(F)c(F)c(F)c1)C1CCCCC12` (centres undefined) yielded an EC50 with Hepatitis B virus of 27 nM. Besides, the CC50 in data set [1] was 21400 nM.
`C[C@H]1Cn2ncc(N3CC(c4ccccc4)CC3=O)c2CN1C(=O)Nc1cc(F)c(F)c(F)c1` (some centres undefined) had a concentration for a half-maximal effect (EC50) in the data set with Hepatitis B virus of 9 nM. In addition, in data set [2], the Tmax is 15 min. Further, the concentration in data set [3] peaked (Cmax) at 3130 ng/mL. Besides, the half-life in data set [4] was 136 min. Moreover, the AUC(0-inf) in data set [5] came out at 6510 ng·h/mL. Moreover, the CC50 in data set [1] was 12800 nM.
In the data set with Hepatitis B virus, `O=C1OC(c2ccccc2)CN1c1cnn2c1CN(C(=O)Nc1cc(F)c(F)c(F)c1)C(C1CC1)C2` (centres undefined) registered an EC50 of 18 nM. Further, the CC50 in data set [1] is 7410 nM.
Consider `O=C1CC(c2ncccn2)CN1c1cnn2c1CN(C(=O)Nc1cc(F)c(F)c(F)c1)C(C1CC1)C2` (centres undefined), for which the EC50 in the data set on Hepatitis B virus was determined as 15 nM. Further, in data set [2], the Tmax was 15 min. Further, in data set [3], the highest level (Cmax) was 5980 ng/mL. Also, the half-life in data set [4] is 52.2 min. In addition, in data set [5], the AUC(0-inf) worked out at 5070 ng·h/mL. Also, the CC50 in data set [1] was greater than 200000 nM.
`N#CC1CC(=O)N(c2cnn3c2CN(C(=O)Nc2cc(F)c(F)c(F)c2)C(C2CC2)C3)C1` (centres undefined) yielded an EC50 with Hepatitis B virus of 12 nM. The Tmax in data set [2] was 15 min. In data set [3], this compound had a Cmax of 6400 ng/mL. The compound also gave a half-life in data set [4] of 278 min. For the same compound, the AUC(0-inf) in data set [5] came out at 10600 ng·h/mL. The CC50 in data set [1] was greater than 200000 nM.
`O=C1c2ccccc2CN1c1cnn2c1CN(C(=O)Nc1cc(F)c(F)c(F)c1)C(C1CC1)C2` (centres undefined) had an EC50 in the data set on Hepatitis B virus of 83 nM. Also, in data set [1], the cytotoxic concentration (CC50) stood at 38500 nM.
For `C[C@H]1Cn2ncc(N3CC(c4ccccc4)CC3=O)c2CN1C(=S)Nc1cc(F)c(F)c(F)c1` (some centres undefined) the same measures were greater than 2000 nM and greater than 2000 nM.
In the data set with Hepatitis B virus, `O=C1CC(c2cnco2)CN1c1cnn2c1CN(C(=O)Nc1cc(F)c(F)c(F)c1)C(C1CC1)C2` (centres undefined) gave an EC50 of 16 nM. In data set [1], the CC50 was 139000 nM.
As to `C[C@H]1Cn2ncc(N3CC(c4ccccc4)CC3=O)c2CN1CC(=O)Nc1cc(F)c(F)c(F)c1` (some centres undefined), the EC50 in the data set on Hepatitis B virus was greater than 2000 nM. Further, the CC50 in data set [1] was greater than 2000 nM.
`O=C1CC(c2ccc(F)cn2)CN1c1cnn2c1CN(C(=O)Nc1cc(F)c(F)c(F)c1)C(C1CC1)C2` (centres undefined): the response in the data set on Hepatitis B virus was half-maximal at 15 nM (EC50). For the same compound, the CC50 in data set [1] is 38500 nM.
Compound `CC1(C)CN(C(=O)Nc2cc(F)c(F)c(F)c2)Cc2c(N3CC(C#N)CC3=O)cnn21` (centres undefined) had an EC50 with Hepatitis B virus of 38 nM. Further, the CC50 in data set [1] is greater than 200000 nM.
The matching figures for `O=C1CC(c2cnc(C(F)(F)F)s2)CN1c1cnn2c1CN(C(=O)Nc1cc(F)c(F)c(F)c1)C(C1CC1)C2` (centres undefined): 27 nM and 38500 nM.
On to `N#CC1CC(=O)N(c2cnn3c2CN(C(=O)Nc2cc(F)c(F)c(F)c2)C2(CC2)C3)C1` (centres undefined), for which the EC50 with Hepatitis B virus was found to be 124 nM. Besides, the CC50 in data set [1] was greater than 200000 nM.
Compound `CC1CCn2ncc(N3CC(c4ccccc4)CC3=O)c2CN1C(=O)Nc1cc(F)c(F)c(F)c1` (centres undefined) displayed an EC50 in the data set with Hepatitis B virus greater than 2000 nM. Moreover, the CC50 in data set [1] is greater than 2000 nM.
`O=C1CC(c2nccs2)CN1c1cnn2c1CN(C(=O)Nc1cc(F)c(F)c(F)c1)C(C1CC1)C2` (centres undefined) yielded an EC50 with Hepatitis B virus of 11 nM. Moreover, in data set [1], the CC50 turned out to be 115000 nM.
In turn, `O=C(Nc1cc(F)c(F)c(F)c1)N1Cc2c(-c3ccc(F)cc3)cnn2CC1C1CC1` (centres undefined) registered an EC50 in the data set with Hepatitis B virus of 4 nM. In data set [1], the CC50 stood at 38500 nM.
Turning to `O=C1CC(C(F)(F)F)CN1c1cnn2c1CN(C(=O)Nc1cc(F)c(F)c(F)c1)C(C1CC1)C2` (centres undefined), it took 34 nM to reach a half-maximal effect in the data set with Hepatitis B virus (EC50). Further, in data set [1], the CC50 was 115000 nM.
For `CC1(C)CC(=O)N(c2cnn3c2CN(C(=O)Nc2cc(F)c(F)c(F)c2)C(C2CC2)C3)C1` (centres undefined), in the data set on Hepatitis B virus, the EC50 was determined as 20 nM. In addition, the cytotoxic concentration (CC50) in data set [1] came to 115000 nM.
